In BindingDB's records for doi:10.3109/14756366.2011.599065 (Wuhan Textile University, 2012):

Key:
Urease subunit alpha [1] = molecular target: Urease subunit alpha (Helicobacter pylori (strain ATCC 700392 / 26695), UniProt P69997); assay: Urease Inhibition Assay; conditions: pH 7.4; 4 °C
Experimental: (§1) Briefly, 50 mL broth cultures (2.0 × 10^8 CFU/mL) were centrifuged (5000g, 4°C)to collect the bacteria, and after washing twice with phosphate-buffered saline (pH 7.4), the H. pylori precipitation was stored at −80°C. H. pylori was returnedto room temperature, and after the addition of 3 mL of distilled water and protease inhibitors, sonication was performed for 60 s. Following centrifugation(15,000g, 4°C), the supernatant was desalted through SephadexG-25 column (PD-10 columns, Amersham-Pharmacia Biotech, Uppsala, Sweden). The resultant crude urease solution was added to an equal volume of glycerol and stored at 4°C until use in the experiment. The mixture, containing 25 μL (4U) of H. pylori urease (100 mM HEPES, pH 6.8) and 25 μL of the test compounds of various concentrations, was preincubated for 3 h at room temperature in a 96-well assay plate. After preincubation, 0.2 mL of 100 mM HEPES (pH 6.8) buffer containing 500 mM urea and 0.002% phenol red were added and incubated at 37°C.

Urease subunit alpha [2] = molecular target: Urease subunit alpha (Helicobacter pylori (strain J99 / ATCC 700824) (Campylobacter pylori J99), UniProt I0ZGT0+I0ZGT1); assay: Urease Inhibition Assay; conditions: pH 7.4; 4 °C
Urease subunit alpha (Helicobacter pylori (strain J99 / ATCC 700824) (Campylobacter pylori J99), UniProt I0ZGT0+I0ZGT1), sequence (I0ZGT1 whole entry): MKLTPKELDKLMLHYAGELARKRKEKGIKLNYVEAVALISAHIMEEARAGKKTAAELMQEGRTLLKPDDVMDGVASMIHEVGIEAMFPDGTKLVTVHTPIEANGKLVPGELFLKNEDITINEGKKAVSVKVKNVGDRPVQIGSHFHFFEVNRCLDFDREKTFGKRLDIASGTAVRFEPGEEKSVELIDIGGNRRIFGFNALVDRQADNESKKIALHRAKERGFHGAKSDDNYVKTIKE
Urease subunit alpha (Helicobacter pylori (strain J99 / ATCC 700824) (Campylobacter pylori J99), UniProt I0ZGT0+I0ZGT1), sequence (I0ZGT0 whole entry): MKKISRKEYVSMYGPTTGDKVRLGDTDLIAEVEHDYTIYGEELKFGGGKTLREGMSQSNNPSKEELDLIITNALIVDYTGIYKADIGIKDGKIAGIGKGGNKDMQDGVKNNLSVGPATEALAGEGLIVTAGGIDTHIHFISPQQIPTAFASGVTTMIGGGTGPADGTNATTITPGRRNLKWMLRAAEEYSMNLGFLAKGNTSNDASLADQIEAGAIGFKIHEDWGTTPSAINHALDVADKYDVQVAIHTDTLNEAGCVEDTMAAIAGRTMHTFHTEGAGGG
Experimental: as §1

Urease subunit alpha (Helicobacter pylori (strain ATCC 700392 / 26695), UniProt P69997), sequence (P14916 whole entry): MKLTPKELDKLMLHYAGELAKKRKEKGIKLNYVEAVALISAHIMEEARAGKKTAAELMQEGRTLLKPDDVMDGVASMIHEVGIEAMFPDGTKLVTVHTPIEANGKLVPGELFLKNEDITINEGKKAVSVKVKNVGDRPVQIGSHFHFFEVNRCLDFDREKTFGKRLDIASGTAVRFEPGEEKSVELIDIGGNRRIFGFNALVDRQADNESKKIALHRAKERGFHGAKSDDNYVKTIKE
Urease subunit alpha (Helicobacter pylori (strain ATCC 700392 / 26695), UniProt P69997), sequence (P69997 whole entry): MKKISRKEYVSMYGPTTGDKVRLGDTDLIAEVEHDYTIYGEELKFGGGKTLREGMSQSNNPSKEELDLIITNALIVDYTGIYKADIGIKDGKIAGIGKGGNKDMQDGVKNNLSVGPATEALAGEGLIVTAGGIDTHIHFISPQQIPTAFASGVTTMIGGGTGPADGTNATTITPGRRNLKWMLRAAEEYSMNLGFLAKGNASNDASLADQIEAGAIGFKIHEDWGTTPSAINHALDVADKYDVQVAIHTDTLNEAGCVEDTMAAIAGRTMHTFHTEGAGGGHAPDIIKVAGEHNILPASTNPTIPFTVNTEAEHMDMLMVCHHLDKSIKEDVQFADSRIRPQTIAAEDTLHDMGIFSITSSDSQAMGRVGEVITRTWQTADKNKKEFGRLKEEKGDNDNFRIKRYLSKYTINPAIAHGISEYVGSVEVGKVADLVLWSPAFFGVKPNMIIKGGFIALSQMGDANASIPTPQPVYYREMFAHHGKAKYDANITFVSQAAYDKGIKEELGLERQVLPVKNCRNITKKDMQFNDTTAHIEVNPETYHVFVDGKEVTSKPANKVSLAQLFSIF

Row | SMILES | IC50 (Urease subunit alpha [1]) | IC50 (Urease subunit alpha [2])
1 | NCc1ccccc1 | > 100 µM | 
2 | Cc1cnc(C(=O)O)cn1 [5-Methylpyrazine-2-carboxylic acid] |  | > 100 µM
3 | Cc1ccc(C(=O)O)cc1 [SAMPL4, O2] | > 100 µM | 
4 | CC(=O)NO [acetohydroxamic acid] |  | 42.5 µM
